# Test results from a melting point compilation (Tetko et al.; mined from patent text by program, amines drawn as free bases though some values may be those of a salt).
row,melting point [°C],Structure (SMILES)
1,178 to 180,CCCc1cc(O)cc2cc(-c3ccc(O)cc3)oc12
2,186,CS(=O)(=O)c1ncc2c(n1)N(c1ccccc1)C(=O)N(c1ccccc1Cl)C2
3,103 to 107,O=C(c1c[nH]c2cc(C#Cc3ccccc3)ccc12)C1CSC(c2cccnc2)N1 (configuration not stated)
4,88 to 90,Cc1ccc(CNc2ccc(Cl)cc2Cl)c(C)c1
5,111 to 112,CC(C)(C)OC(=O)Nc1cc(OCc2ccccc2)c2ccccc2c1I
6,118 to 120,CCc1cc(-c2nc3ccccc3s2)ccc1N
7,205 to 207,CNC(=O)[C@]1(n2cnc3c(NCc4cccc(I)c4)nc(Cl)nc32)SC[C@H](O)[C@@H]1O
8,160 to 163,O=C1c2cccc3c2N(C(=O)C2CCCN12)C(c1ccccc1)O3 (configuration not stated)
9,140 to 141,Cc1cc(CCCCCOc2ccc(C3=NCCO3)cc2CO)on1
10,83 to 84,CC=Cc1cc(C(=O)c2ccccc2F)c(Cl)c(Cl)c1O
11,155 to 156,N#CCCNC(=O)c1cccc(-c2ccc3c(c2)N(c2cccc(Cl)c2Cl)CC3)c1
12,146 to 149,Cc1cc(OCc2ccccc2)cc(OCc2cccc(OCc3ccc4ccccc4n3)c2)c1C(=O)O
13,153,Cn1c2ccccc2c2c3c(ccc21)C(=O)OC3=O
14,256 to 258,O=C1Nc2ccccc2Sc2c1cccc2C(F)(F)F
15,94 to 95,COc1ccc(C(=O)Cc2cccc(C(F)(F)F)c2)cc1
16,133 to 135,O=C(Nc1ccc(-n2nc(C(F)(F)F)cc2C(F)(F)F)cc1)c1ccccc1C(F)(F)F
17,122 to 128,CN(OCc1ccccc1)S(=O)(=O)c1ccccc1S(N)(=O)=O
18,151 to 153,COc1ccc(-c2cnc(-c3ccc(Cl)cc3)nc2-c2ccc(OC)cc2)cc1
19,213 to 215,CC1(C)CCC(C)(C)c2cc3cc(-c4ccc(C(=O)O)c(Cl)c4)ccc3cc21
20,261 to 263,CC1Cc2cc3c(cc2C(c2ccc([N+](=O)[O-])cc2)=NN1c1ncccn1)OCO3 (configuration not stated)
21,103 to 105,CC(CCc1ccc(OCCO)cc1)NCC(O)c1cccc(Cl)c1 (configuration not stated)
22,95,Cc1cccc(NC(=O)c2cc(Cl)cc(C)n2)c1
23,219 to 221,CC1(Cc2ccccc2)Cc2cc(O)c(Cl)c(Cl)c2C1=O (configuration not stated)
24,320 to 324,O=c1[nH]c2cc(Cl)ccc2c(O)c1-c1cccc(/C=C/c2ccccc2)c1
25,144,CCC(=O)NS(=O)(=O)c1cccc(-c2cc(-c3nc(-c4ccc(C(F)(F)F)cc4)cc(C(F)(F)F)n3)ccn2)c1
26,98 to 100,Cc1oc(-c2cccc(-c3nc(CC(=O)OCc4ccccc4)c(C)o3)c2)nc1CC(=O)OCc1ccccc1
27,100 to 101,Clc1ccc(C2C=Cc3cc(Br)cnc3O2)cc1Cl (configuration not stated)
28,143 to 146,COc1ccc2nc(Nc3cc(C)cs3)[nH]c2c1
29,125 to 126,O=C(O)CCc1oc(SCc2ccccn2)nc1-c1ccc(Cl)cc1

# Second part, the molecule before the results:
row,Structure (SMILES),melting point [°C]
1,CC(C)(C)C(=O)SC1CCN(C(C(=O)C2CC2)c2ccccc2F)CC1 (configuration not stated),88 to 89
2,CCOC(=O)C(C)(C)CCCCCOc1ccc(NC(=O)CCCCCn2ccnc2)cc1,59
3,CCOC(=O)C1(O)C(=O)Nc2c(OC)cc(CCNC(=O)C(F)(F)F)cc21 (configuration not stated),115 to 117
4,O=c1n(CO)c2ccccc2n1CO,157 to 161
5,CN(C)S(=O)(=O)c1cccc(OC(F)F)c1C#N,100 to 102
6,Cn1nc(-c2nc(C=O)c(Cl)cc2F)c(Cl)c1OC(F)F,120 to 121
7,CCOC(=O)CNC(=O)[C@@H]1CS[C@H](c2ccccc2O)N1C(=O)CCSC(C)=O,130 to 131
8,"COCC(=O)NCCC1CCCc2ccc(OC)cc21 (single isomer, unassigned; (-))",58 to 60
9,CC(C)Oc1nc(N)nc2c1ncn2CCC(CO)CO,112 to 114
10,O=C(/C=C1/c2ccccc2N(C(=O)c2ccc(NC(=O)c3ccccc3-c3ccccc3)cc2)CCC1(F)F)NCc1ccccc1,189 to 192
11,COc1ccc2c(c1)S(=O)(=O)C(C(=O)NCCCCCC(=O)O)C(=O)N2C (configuration not stated),110 to 112
12,OC1(c2cn(-c3ccc(Br)cc3)nn2)CN2CCC1CC2 (configuration not stated),214
13,CCc1nc(C(=O)c2c(C)cc(C)cc2C)c(C=O)n1C(CC)CC,119 to 120
14,CNC(=O)N(c1ccncc1)n1cccc1,156 to 160
15,CC12CC3(C)CC(c4ccc(C(=O)O)cc4)(C1)CC(c1ccc(C(=O)O)cc1)(C2)C3,252 to 255
16,CC(C)(C)NC(=O)C1CCCN1C(=O)C(O)C(Cc1ccccc1)NC(=O)C(CC(N)=O)NC(=O)COc1cccc(NC(=O)OCc2ccccc2)c1 (configuration not stated),107 to 117
17,COC(=O)c1ccc(OC)c(OC)c1N,66 to 67
18,Cc1[nH]c2ccccc2c1CCN1CCN(NC(=O)c2ccccc2)CC1,130 to 133
19,COc1ccc2c(c1)N(C)C(=S)C2,135 to 136

row,Structure (SMILES),melting point [°C]
1,O=C(Nc1ccc(Br)cc1CBr)C(F)(F)F,133 to 135
2,CCCc1nc2c(N)nc(C)c(C)c2n1CCCCCS(=O)(=O)c1ccc(Cl)cc1,147 to 149
3,CCC(C)(N=NC(C)(CC)NC(=O)NNC(C)(C)C)NC(=O)NNC(C)(C)C (configuration not stated),155 to 160
4,CCN(CC)CCCNC(=O)c1ccc(S(N)(=O)=O)cc1,122 to 123
5,COc1cc2c(c3c1OC(C)(C)C3)C(c1cccc(O)c1)=NC(C)(C)C2,208 to 209
6,CN1CCN(c2nc3sc4c(NCc5cccnc5)ncnc4c3c3c2CCC(C)(C)C3)CC1,210 to 212
7,O=S(CCCCCOc1ccc(C2=C(c3ccc(O)cc3)CCCc3cc(O)ccc32)cc1)CCCC(F)(F)C(F)(F)F (configuration not stated),165 to 168
8,COC(=O)c1c(C)c(O)cc(OC)c1Br,105 to 110
9,COC(=O)CC[C@H](NC(=O)CCC#Cc1cnc2nc(NC(=O)C(C)(C)C)nc(O)c2c1)C(=O)OC,162 to 163
10,CC(C)C[C@H](NC(=O)N1CCOCC1)C(=O)N[C@@H](CCc1ccccc1)C(=O)c1oc(-c2ccccc2)nc1-c1ccccc1,83 to 85
11,C[C@H](NC(=O)OC(C)(C)C)C(=O)N1CCC[C@H]1C(=O)N1CCC[C@H]1C(=O)OCc1ccccc1,143 to 145
12,CC(C)Nc1nc2c(Cl)cccc2n1[C@H]1O[C@@H](CO)[C@H](O)[C@@H]1O,225 to 227
13,CNC(=S)NCCCCC(NC(=O)C(Cc1cccc2ccccc12)Cc1cccc2ccccc12)C(=O)NC(CC(C)C)C(O)C(=O)OC(C)C (configuration not stated),93 to 95
14,Cc1ccc(C(=O)Nc2cc(-n3ccnc3C)cc(C(F)(F)F)c2)cc1Nc1nccc(-c2cccnc2)n1,242 to 247
15,CN(C)C=Cc1nc2ccc(F)cc2c(=O)n1-c1cccnc1Cl,197 to 200
16,CCCCCCCCCCCCC(O)CC#CCCCC(=O)O (configuration not stated),80.5 to 81
17,CCC(C(C)=CC(CNC(=O)c1c[nH]cn1)=NO)[N+](=O)[O-] (configuration not stated),157 to 158
18,CCOCc1cc(OC)c(-c2ccc(C[C@H](NC(=O)c3c(F)cccc3F)C(=O)OCC)cc2)c(OC)c1,87 to 89
19,CCCCc1nn(-c2cc(NC(=O)CC)ccc2Cl)c(=O)n1Cc1ccc(-c2ccccc2S(=O)(=O)NC(=O)c2cc(Cl)ccc2Cl)cc1F,169 to 172
